What was measured:
[1] = Cytotoxicity against HUVEC assessed as cell viability at 100 uM after 24 hrs by MTT assay; format: cell-based; settings: human, HUVEC cells; read-out: Activity
HUVEC [2] = test: Antiinflammatory activity in HUVEC assessed as inhibition of TNFalpha-induced ICAM1 expression at 100 uM pretreated for 2 hrs followed by TNFalpha challenge measured after 16 hrs by cell-ELISA; format: functional; settings: Homo sapiens
HUVEC [3] = test: Antiinflammatory activity in HUVEC assessed as inhibition of TNFalpha-induced ICAM1 expression pretreated for 2 hrs followed by TNFalpha challenge measured after 16 hrs by cell-ELISA; format: functional, cell-based; settings: Homo sapiens
HUVEC [4] = test: Antiinflammatory activity in HUVEC assessed as inhibition of TNFalpha-induced ICAM1 expression measured after 6 hrs by FACS flow cytometry; format: functional, cell-based; settings: Homo sapiens
HUVEC [5] = test: Antiinflammatory activity in HUVEC assessed as inhibition of TNFalpha-induced ICAM1 expression preincubated for 0.5 to 6 hrs followed by TNFalpha challenge measured after 4 hrs by immunostaining assay; format: functional, cell-based; settings: Homo sapiens
HUVEC [6] = test: Antiinflammatory activity in HUVEC assessed as inhibition of TNFalpha-induced ICAM1 expression at 100 uM pre-treated before TNFalpha addition by cell-ELISA; format: functional, cell-based; settings: Homo sapiens, TDE = time-dependent effect
HUVEC [7] = test: Antiinflammatory activity in HUVEC assessed as inhibition of LPS-induced ICAM1 expression by cell-ELISA; format: functional, cell-based; settings: Homo sapiens

| Structure (SMILES) | viability at 24 h, 100 µM [1] [%] | inhibition at 100 µM (HUVEC [2]) [%] | IC50 (HUVEC [3]) [µM] | IC50 (HUVEC [4]) [µM] | IC50 (HUVEC [5]) [µM] | inhibition (HUVEC [2]) | inhibition (HUVEC [6]) | IC50 (HUVEC [7]) [µM] |
| --- | --- | --- | --- | --- | --- | --- | --- | --- |
| CCOC(=O)/C=C1/C(=O)Nc2ccc(Br)cc21 | 97 | 58 | 100 |  |  |  |  |  |
| CCOC(=O)/C=C1/C(=O)N(C(=O)OCC)c2ccccc21 | 95 | 66 | 50 |  |  |  |  |  |
| CCOC(=O)/C=C1/C(=O)N(CC(=O)OC)c2ccc(Cl)cc21 | 97 | 67 | 40 |  |  |  |  |  |
| CCOC(=O)/C=C1/C(=O)N(C(=O)OCC)c2ccc(Cl)cc21 | 97 | 83 | 30 |  |  |  |  |  |
| CCOC(=O)/C=C1/C(=O)N(C(=O)OC)c2ccccc21 | 98 | 57 | 78 |  |  |  |  |  |
| CC(=O)Oc1ccccc1C(=O)O [ASPIRIN] |  |  |  | 5000 |  |  |  |  |
| CCOC(=O)/C=C1/C(=O)Nc2ccc(Cl)cc21 | 96 | 56 | 100 |  |  |  |  |  |
| CCOC(=O)/C=C1/C(=O)N(CC(=O)OCC)c2ccc(Cl)cc21 | 96 | 74 | 25 |  |  |  |  |  |
| CCOC(=O)/C=C1/C(=O)N(CC(=O)OCC)c2ccccc21 | 98 | 74 | 55 |  |  |  |  |  |
| CCOC(=O)/C=C1/C(=O)Nc2ccccc21 | 96 | 40 | > 100 |  |  |  |  |  |
| CCOC(=O)/C=C1/C(=O)N(C(=O)OCC)c2ccc(Br)cc21 | 98 | 91 | 15 |  |  |  |  |  |
| CC(=O)N[C@@H](CS)C(=O)O [ACETYLCYSTEINE] |  |  |  |  | 10000 |  |  |  |
| CCOC(=O)/C=C1/C(=O)Nc2ccc(F)cc21 | 95 | 31 | > 100 |  |  |  |  |  |
| CCOC(=O)/C=C1/C(=O)N(C(=O)OC)c2ccc(Cl)cc21 | 96 | 77 | 40 |  |  |  |  |  |
| CCOC(=O)/C=C1/C(=O)N(CC(=O)OCC)c2ccc(Br)cc21 | 97 | 93 | 10 |  |  | Dose-dependent effect | tde |  |
| CCOC(=O)/C=C1/C(=O)N(CC(=O)OC)c2ccc(Br)cc21 | 99 | 81 | 25 |  |  |  |  |  |
| CCOC(=O)/C=C1/C(=O)N(CC(=O)OCC)c2ccc(F)cc21 | 97 | 63 | 40 |  |  |  |  |  |
| CCOC(=O)/C=C1/C(=O)N(CC(=O)OC)c2ccccc21 | 97 | 58 | 70 |  |  |  |  |  |
| CCOC(=O)/C=C1/C(=O)N(C(=O)OC)c2ccc(F)cc21 | 97 | 61 | 70 |  |  |  |  |  |
| CCOC(=O)/C=C1/C(=O)N(C(=O)OC)c2ccc(Br)cc21 | 98 | 88 | 25 |  |  |  |  |  |
| CCOC(=O)/C=C1/C(=O)N(CC(=O)OC)c2ccc(F)cc21 | 96 | 52 | 75 |  |  |  |  |  |
| CCOC(=O)/C=C1/C(=O)N(C(=O)OCC)c2ccc(F)cc21 | 96 | 72 | 53 |  |  |  |  |  |
| O=C(O)Cc1ccccc1Nc1c(Cl)cccc1Cl [DICLOFENAC] |  |  |  |  |  |  |  | 750 |
